Reference: patent US4178443A, “Derivatives of 7 [-substituted oxyimins acetamido] cephalosporins” (Hoffmann-La Roche Inc., priority 1977, dated 1979)
In brackets after ≈: the same amount, converted by molar mass.

What was measured:
[1] = tested on: Escherichia coli; assay: Activity in vitro: Minimum Inhibitory Concentration; assay type: cell-based
From the text: (§1) Activity in vitro: Minimum Inhibitory Concentration (μg/ml)

[2] = tested on: Haemophilus influenzae; assay: as above; assay type: cell-based
From the text: as §1

[3] = tested on: Klebsiella pneumoniae; assay: as above; assay type: cell-based
From the text: as §1

[4] = tested on: Proteus mirabilis; assay: as above; assay type: cell-based
From the text: as §1

[5] = tested on: Proteus rettgeri; assay: as above; assay type: cell-based; settings: Providencia rettgeri
From the text: as §1

[6] = tested on: Proteus vulgaris; assay: as above; assay type: cell-based
From the text: as §1

[7] = tested on: Staphylococcus aureus ATCC 6538; assay: as above; assay type: cell-based; settings: ATCC6538
From the text: as §1

[8] = tested on: Staphylococcus aureus Penicillin-resistant strain; assay: as above; assay type: cell-based
From the text: as §1

[9] = tested on: Proteus mirabilis; assay: Activity in vivo: survival of mice infected intraperitoneally with Proteus mirabilis; settings: sc, 96 h; mice infected i.p. with Proteus mirabilis; compound s.c. one hour after infection; survival on 4th day; by interpolation; read-out: CD50 (dosage at which 50% of the mice survive)
Experimental: Groups of 10 mice are infected intraperitoneally with an aqueous suspension of Proteus mirabilis. One hour after the infection the test compound is administered subcutaneously. The number of surviving mice is determined on the 4th day. Various dosages of test compound are administered and the dosage at which 50% of the mice survice (CD50, mg/kg) is determined by interpolation.

[10] = Toxicity (mice, 24 hour values); settings: mouse, in vivo
Experimental: TOXICITY (mice, 24 hour values)

[11] = Haemophilus influenzae strain 1
[12] = Haemophilus influenzae strain 2
[13] = Haemophilus influenzae strain 3
[14] = Haemophilus influenzae strain 4
[15] = Haemophilus influenzae strain 5
[16] = Haemophilus influenzae strain 6
[17] = Haemophilus influenzae strain 7

SMILES | MIC ([1]; Escherichia coli strain 1) [µg/mL] | MIC ([1]; Escherichia coli strain 2) [µg/mL] | MIC [2, 11] [µg/mL] | MIC [2, 12] [µg/mL] | MIC [2, 13] [µg/mL] | MIC [2, 14] [µg/mL] | MIC [2, 15] [µg/mL] | MIC [2, 16] [µg/mL] | MIC [2, 17] [µg/mL] | MIC [3] [µg/mL] | MIC ([4]; Proteus mirabilis strain 1) [µg/mL] | MIC ([4]; Proteus mirabilis strain 2) [µg/mL] | MIC [5] [µg/mL] | MIC [6] [µg/mL] | MIC [7] [µg/mL] | MIC [8] [µg/mL] | ED50 [9] [mg/kg] | LD50 at 24 h ([10]; iv, mice, 24 hour values) [mg/kg] | other results
CON=C(C(=O)N[C@@H]1C(=O)N2C(C(=O)O)=C(CSc3nc(=O)c(=O)[nH]n3C)CS[C@H]12)c1ccco1 [Compound A, (7R)-7-[2-(2-furyl)-2-(methoxyimino)acetamido]-3-[[(1,2,5,6-tetrahydro-2-methyl-5,6-dioxo-as-triazin-3-yl)thio]methyl]-3-cephem-4-carboxylic acid] | 0.63 (≈ 1.21 µM) | 40 (≈ 76.6 µM) | 1.2 (≈ 2.3 µM) | 0.16 (≈ 0.306 µM) | 0.16 (≈ 0.306 µM) | 0.16 (≈ 0.306 µM) | 0.08 (≈ 0.153 µM) | 0.16 (≈ 0.306 µM) | 0.08 (≈ 0.153 µM) | 10 (≈ 19.1 µM) | 2.5 (≈ 4.78 µM) | 5 (≈ 9.57 µM) | 0.63 (≈ 1.21 µM) | 5 (≈ 9.57 µM) | 2.5 (≈ 4.78 µM) | 5 (≈ 9.57 µM) | 0.09 | 500 to 1000 | LD50 at 24 h ([10]; po, mice, 24 hour values): > 5000 mg/kg; LD50 at 24 h ([10]; sc, mice, 24 hour values): > 4000 mg/kg
CON=C(C(=O)N[C@@H]1C(=O)N2C(C(=O)O)=C(CSc3nc(=O)c(=O)[nH]n3C)CS[C@H]12)c1ccccc1 [Compound C, (7R)-7-[2-(phenyl)-2-(methoxyimino)acetamido]-3-[[(1,2,5,6-tetrahydro-2-methyl-5,6-dioxo-as-triazin-3-yl)thio]methyl]-3-cephem-4-carboxylic acid] | 1.2 (≈ 2.25 µM) | 10 (≈ 18.8 µM) | 2.5 (≈ 4.69 µM) | 0.16 (≈ 0.3 µM) | 0.16 (≈ 0.3 µM) | 0.16 (≈ 0.3 µM) | 0.08 (≈ 0.15 µM) | 0.08 (≈ 0.15 µM) | 0.08 (≈ 0.15 µM) | 20 (≈ 37.6 µM) | 10 (≈ 18.8 µM) | 20 (≈ 37.6 µM) | 0.63 (≈ 1.18 µM) | 10 (≈ 18.8 µM) | 2.5 (≈ 4.69 µM) | 2.5 (≈ 4.69 µM) | 0.6 | 1000 to 2000 | –
CCn1nc(SCC2=C(C(=O)O)N3C(=O)[C@@H](NC(=O)C(=NOC)c4ccco4)[C@H]3SC2)[nH]c(=O)c1=O [Compound F] | 1.2 (≈ 2.24 µM) | 80 (≈ 149 µM) | 2.5 (≈ 4.66 µM) | 0.31 (≈ 0.578 µM) | 1.2 (≈ 2.24 µM) | 0.16 (≈ 0.298 µM) | 0.08 (≈ 0.149 µM) | 0.08 (≈ 0.149 µM) | 0.16 (≈ 0.298 µM) | 40 (≈ 74.6 µM) | 20 (≈ 37.3 µM) | 40 (≈ 74.6 µM) | 10 (≈ 18.6 µM) | 20 (≈ 37.3 µM) | 5 (≈ 9.32 µM) | 5 (≈ 9.32 µM) | 0.85 | – | LD50 at 24 h ([10]; iv): 1000 to 2000 mg/kg
Cn1c(SCC2=C(C(=O)O)N3C(=O)[C@@H](NC(=O)C(=NOCC(N)=O)c4ccco4)[C@H]3SC2)n[nH]c(=O)c1=O [Compound G, (7R)-7-[2-[(carbamoylmethoxy)imino]-2-(2-furyl)-acetamido]-3-[[(1,4,5,6-tetrahydro-4-methyl-5,6-dioxo-as-triazin-3-yl)thio]methyl]-3-cephem-4-carboxylic acid] | 0.31 (≈ 0.548 µM) | 5 (≈ 8.84 µM) | 5 (≈ 8.84 µM) | 0.63 (≈ 1.11 µM) | 0.31 (≈ 0.548 µM) | 0.63 (≈ 1.11 µM) | 0.31 (≈ 0.548 µM) | 0.63 (≈ 1.11 µM) | 0.63 (≈ 1.11 µM) | 2.5 (≈ 4.42 µM) | 5 (≈ 8.84 µM) | 10 (≈ 17.7 µM) | 0.63 (≈ 1.11 µM) | 1.2 (≈ 2.12 µM) | 1.2 (≈ 2.12 µM) | 1.2 (≈ 2.12 µM) | 0.8 | > 4000 | –
CON=C(C(=O)N[C@@H]1C(=O)N2C(C(=O)O)=C(CSc3nc(=O)c(=O)[nH]n3C)CS[C@H]12)c1cccs1 [Compound E] | 2.5 (≈ 4.64 µM) | 20 (≈ 37.1 µM) | 2.5 (≈ 4.64 µM) | 0.16 (≈ 0.297 µM) | 0.16 (≈ 0.297 µM) | 0.16 (≈ 0.297 µM) | 0.08 (≈ 0.149 µM) | 0.08 (≈ 0.149 µM) | 0.08 (≈ 0.149 µM) | 40 (≈ 74.3 µM) | 10 (≈ 18.6 µM) | 20 (≈ 37.1 µM) | 2.5 (≈ 4.64 µM) | 10 (≈ 18.6 µM) | 2.5 (≈ 4.64 µM) | 2.5 (≈ 4.64 µM) | 1.15 | – | LD50 at 24 h ([10]; iv): 2000 to 4000 mg/kg
CON=C(C(=O)N[C@@H]1C(=O)N2C(C(=O)O)=C(CSc3ccn(N)c(=O)n3)CS[C@H]12)c1ccco1 [Compound B, (7R)-7-[2-(2-furyl)-2-(methoxyimino)acetamido]-3-[[(1-amino-1,2-dihydro-2-oxo-4-pyrimidinyl)thio]-methyl]-3-cephem-4-carboxylic acid] | 2.5 (≈ 4.94 µM) | 20 (≈ 39.5 µM) | 2.5 (≈ 4.94 µM) | 0.63 (≈ 1.24 µM) | 0.63 (≈ 1.24 µM) | 0.31 (≈ 0.612 µM) | 0.31 (≈ 0.612 µM) | 0.31 (≈ 0.612 µM) | 0.31 (≈ 0.612 µM) | 20 (≈ 39.5 µM) | 10 (≈ 19.7 µM) | 40 (≈ 79 µM) | 2.5 (≈ 4.94 µM) | 40 (≈ 79 µM) | 0.16 (≈ 0.316 µM) | 1.2 (≈ 2.37 µM) | 3 | 1000 to 2000 | –
CON=C(C(=O)N[C@@H]1C(=O)N2C(C(=O)O)=C(CSc3n[nH]c(=O)c(=O)n3C)CS[C@H]12)c1ccco1 [Compound D, (7R)-7-[2-(2-furyl)-2-(methoxyimino)acetamido]-3-[[(1,4,5,6-tetrahydro-4-methyl-5,6-dioxo-as-triazin-3-yl)thio]methyl]-3-cephem-4-carboxylic acid] | 0.16 (≈ 0.306 µM) | 5 (≈ 9.57 µM) | 2.5 (≈ 4.78 µM) | 0.31 (≈ 0.593 µM) | 0.31 (≈ 0.593 µM) | 0.31 (≈ 0.593 µM) | 0.16 (≈ 0.306 µM) | 0.16 (≈ 0.306 µM) | 0.16 (≈ 0.306 µM) | 5 (≈ 9.57 µM) | 10 (≈ 19.1 µM) | 20 (≈ 38.3 µM) | 0.63 (≈ 1.21 µM) | 1.2 (≈ 2.3 µM) | 0.63 (≈ 1.21 µM) | 0.63 (≈ 1.21 µM) | 0.7 | 500 to 1000 | LD50 at 24 h ([10]; po, mice, 24 hour values): > 5000 mg/kg; LD50 at 24 h ([10]; sc, mice, 24 hour values): > 4000 mg/kg
